Series [1] concerns the target virion-associated DNA polymerase of WHV (Woodchuck hepatitis B virus, UniProt P03160). Put plainly: biochemical.
A further series deals with HepG2 cells. The following applies: human, 24 h, 10 μM.
The next series addresses T1, human DNA polymerase γ (Homo sapiens, UniProt P54098).
T1 sequence (P54098 1-1239): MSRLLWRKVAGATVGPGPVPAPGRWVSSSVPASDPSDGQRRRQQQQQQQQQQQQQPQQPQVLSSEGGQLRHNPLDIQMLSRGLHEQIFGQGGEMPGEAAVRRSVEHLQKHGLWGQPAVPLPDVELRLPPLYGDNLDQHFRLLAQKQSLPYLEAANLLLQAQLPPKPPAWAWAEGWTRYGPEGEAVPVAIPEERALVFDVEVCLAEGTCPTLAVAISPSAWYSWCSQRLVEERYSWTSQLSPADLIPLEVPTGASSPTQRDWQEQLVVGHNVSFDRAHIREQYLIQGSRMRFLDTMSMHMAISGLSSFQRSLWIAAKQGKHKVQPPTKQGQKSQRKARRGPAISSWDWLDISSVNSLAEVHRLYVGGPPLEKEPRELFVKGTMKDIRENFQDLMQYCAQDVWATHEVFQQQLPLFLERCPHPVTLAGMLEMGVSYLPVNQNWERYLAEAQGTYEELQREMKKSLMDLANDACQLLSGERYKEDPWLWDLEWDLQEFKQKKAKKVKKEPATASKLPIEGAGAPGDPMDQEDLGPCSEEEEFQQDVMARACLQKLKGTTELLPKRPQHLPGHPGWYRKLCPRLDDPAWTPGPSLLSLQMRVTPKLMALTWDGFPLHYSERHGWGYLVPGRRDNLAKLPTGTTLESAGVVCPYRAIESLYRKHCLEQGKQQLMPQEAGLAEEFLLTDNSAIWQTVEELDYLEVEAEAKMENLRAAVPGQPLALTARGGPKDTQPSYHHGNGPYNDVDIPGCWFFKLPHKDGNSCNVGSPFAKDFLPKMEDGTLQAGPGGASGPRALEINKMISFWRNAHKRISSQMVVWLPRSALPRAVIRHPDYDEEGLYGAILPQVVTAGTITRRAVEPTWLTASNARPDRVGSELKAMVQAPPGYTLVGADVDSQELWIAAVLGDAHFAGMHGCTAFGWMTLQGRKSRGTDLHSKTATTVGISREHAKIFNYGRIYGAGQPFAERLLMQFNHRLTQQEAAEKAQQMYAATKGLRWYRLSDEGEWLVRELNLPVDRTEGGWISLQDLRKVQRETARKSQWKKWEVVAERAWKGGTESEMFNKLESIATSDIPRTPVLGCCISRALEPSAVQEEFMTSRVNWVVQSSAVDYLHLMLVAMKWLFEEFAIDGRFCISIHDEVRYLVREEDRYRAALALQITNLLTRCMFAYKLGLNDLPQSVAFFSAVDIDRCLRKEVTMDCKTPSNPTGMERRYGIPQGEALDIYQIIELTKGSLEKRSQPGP
The format is biochemical. The conditions noted are these: highest concentration tested 100 μM. The source says: (§1) Nucleosides and nucleoside analogs are usually metabolized within cells to their TP derivatives. Cellular DNA polymerases are routinely responsible for normal nuclear and mitochondrial DNA synthesis and repair. Because the TP metabolites are potential substrates for DNA polymerases, studies were undertaken to determine if L-dC-TP inhibited human DNA polymerases.

Another series has as its target human DNA polymerase β (Homo sapiens, UniProt P06746). The format is biochemical. The conditions noted are these: highest concentration tested 100 μM; read-out: IC50 Human DNA pol β.
Text: as §1

Series [2] has as its system primary human hepatocytes. The conditions noted are these: 24 h, 10 μM.
The conditions of series [3]: monkey, in vivo, po.
The nature of series [4]: Cytotoxicity in 2.2.15 cells. The following applies: human, 2.2.15 hepatoma cells.
Another series deals with HBV. Kind of series: Anti-HBV activity in HBV-expressing 2.2.15 cells (HBV DNA reduction).
Series [5] relates to human erythroid burst-forming (BFU-E) progenitor cells. Format: cell-based. The conditions noted are these: human bone marrow clonogenic assay. The source says:
(§2) In particular, anemia and neutropenia are the most common drug-related clinical toxicities associated with the anti-HIV drug zidovudine (ZDV).

For series [6], the system named is human granulocyte-macrophage colony-forming (CFU-GM) progenitor cells. The format is cell-based. The conditions noted are these: human bone marrow clonogenic assay.
Text: as §2

For series [7], the system named is human hepatoma cell line 2.2.15. Kind of series: Cytotoxicity in 2.2.15 cells. The conditions noted are these: 2.2.15 cells; 50% inhibition of neutral red dye uptake (Table 25).

The source of these data is patent US7585851B2, “3′-prodrugs of 2′-deoxy-β-L-nucleosides” (priority 2000, dated 2009).

Usually IC50 stands for the concentration that gives 50% inhibition. What is called CC50 is the concentration that lowers cell viability or growth by half. As a reminder, the EC90 is the concentration at which the effect reaches the 90% level. A low value points to greater potency.

Sequence of virion-associated DNA polymerase of WHV (P03160 whole entry): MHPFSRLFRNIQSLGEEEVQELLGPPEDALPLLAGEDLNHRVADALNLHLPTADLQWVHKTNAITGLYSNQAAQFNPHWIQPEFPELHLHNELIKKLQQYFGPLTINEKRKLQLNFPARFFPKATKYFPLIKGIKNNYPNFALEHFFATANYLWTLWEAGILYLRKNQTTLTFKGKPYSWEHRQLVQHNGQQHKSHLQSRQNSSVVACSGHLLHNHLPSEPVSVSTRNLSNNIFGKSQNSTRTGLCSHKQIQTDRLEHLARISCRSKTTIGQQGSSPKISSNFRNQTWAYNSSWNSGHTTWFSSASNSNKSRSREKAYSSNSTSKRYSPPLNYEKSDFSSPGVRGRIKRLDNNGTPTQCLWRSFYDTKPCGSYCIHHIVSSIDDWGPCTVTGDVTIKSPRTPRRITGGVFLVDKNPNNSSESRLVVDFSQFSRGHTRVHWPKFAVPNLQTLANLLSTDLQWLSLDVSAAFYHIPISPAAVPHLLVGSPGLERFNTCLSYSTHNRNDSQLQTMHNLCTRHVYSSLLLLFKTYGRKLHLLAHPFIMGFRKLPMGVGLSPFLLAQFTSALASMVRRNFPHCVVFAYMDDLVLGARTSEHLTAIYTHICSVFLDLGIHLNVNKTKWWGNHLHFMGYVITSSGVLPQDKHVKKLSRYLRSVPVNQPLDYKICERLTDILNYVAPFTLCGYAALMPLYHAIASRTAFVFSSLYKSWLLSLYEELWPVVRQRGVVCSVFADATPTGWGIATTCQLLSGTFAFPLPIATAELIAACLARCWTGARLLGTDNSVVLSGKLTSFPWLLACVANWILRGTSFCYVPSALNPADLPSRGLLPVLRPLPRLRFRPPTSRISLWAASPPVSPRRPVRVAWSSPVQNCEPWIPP

Take `O=c1ccn([C@@H]2C[C@@H](O)[C@H](COP(=O)(O)OP(=O)(O)OP(=O)(O)O)O2)c(=O)[nH]1` [L-dU-TP, β-L-2′-deoxyuridine 5′-triphosphate]: the IC50 in [1] was 5.26 µM; on human DNA polymerase γ it was more than 100 µM; at human DNA polymerase β it was more than 100 µM. Also, the intracellular metabolite level in the series on HepG2 cells was 18.2 ± 1.0 µM; in series [2], 43.5 ± 27 µM.

Consider `CC(=O)OC[C@@H]1O[C@H](n2ccc(N)nc2=O)C[C@H]1OC(C)=O` [3′5′-diacetyl-L-dC, 3′,5′-Di-O-acetyl-2′-deoxy-β-L-cytidine], for which the “% BA (bioavailability of L-dC)” value in series [3] is 23.0 ± 6.5%.

Molecule `Nc1ccn([C@@H]2CS[C@H](CO)O2)c(=O)n1` [lamivudine, (−)-enantiomer of cis-2-hydroxymethyl-5-(cytosin-1-yl)-1,3-oxathiolane, reference compound] displayed a CC50 in series [4] of more than 1 mM. In the series on HBV (2.2.15 cells), the “S.I. (CC50/EC90)” value was >5,000. In the series on HBV (Hepatitis B virus), this molecule registered an EC90 of 180 ± 7 nM. Besides, the IC50 in [5] and in series [6] was more than 10 µM each time.

For the molecule `Cc1cn([C@@H]2C[C@@H](O)[C@H](CO)O2)c(=O)[nH]c1=O` [L-dT, β-L-2′-deoxythymidine], it took 3.02 mM to reach half-maximal cytotoxicity in [7] (CC50).
